Drawing on article PMC9525653, “Mutations conferring SO4^2− pumping ability on the cyanobacterial anion pump rhodopsin and the resultant unique features of the mutant” (Scientific Reports, 2022), this text covers Kd for one compound.

In experiment [1] the target is MrHR (Mastigocladopsis repens, UniProt A0A6P3CW41, E182T). Description: biochemical.
Experiment [2] addresses MrHR (Mastigocladopsis repens, UniProt A0A6P3CW41). Description: biochemical.

Molecules are shown by their SMILES.

Sequence of MrHR (Mastigocladopsis repens, UniProt A0A6P3CW41) (A0A6P3CW41 1-232): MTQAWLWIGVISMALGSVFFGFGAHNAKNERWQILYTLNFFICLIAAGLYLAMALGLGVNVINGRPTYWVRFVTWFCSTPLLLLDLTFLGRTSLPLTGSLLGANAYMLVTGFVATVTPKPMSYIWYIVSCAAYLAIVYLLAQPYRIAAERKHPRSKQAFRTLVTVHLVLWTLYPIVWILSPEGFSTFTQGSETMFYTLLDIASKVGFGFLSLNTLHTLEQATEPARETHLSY
Sequence of MrHR (Mastigocladopsis repens, UniProt A0A6P3CW41, E182T) (A0A6P3CW41 1-232 E182T): as the sequence (A0A6P3CW41 1-232) above, with E182T counted along it

In general, Kd refers to the constant that tells how readily two partners part at equilibrium. Read a high Kd as lower affinity. As for `Cl` [Cl^−], the results for the Kd in experiment [1] and in experiment [2] were 1.18 mM and 4.98 mM, respectively.
